Experimental data: patent publication US11618747B2, “LXR modulators with bicyclic core moiety” (OrsoBio, Inc., priority 2018, dated 2023)

Legend:
[1] = target: T1, LXRβ ligand-binding domain (Homo sapiens, UniProt P55055, DUP175-175); assay: TR-FRETβ activity assay (NCoA3 coactivator peptide recruitment); format: biochemical; conditions: TR-FRET, 1 μM 24(S)-25-epoxycholesterol prestimulation; read-out: FRETβ (EC50 range)
T1 construct: amino acids 156-461; NP009052; made in house; host or cells: E. coli
T1 sequence (P55055 with tags, fused parts or gaps DUP175-175 limits assumed): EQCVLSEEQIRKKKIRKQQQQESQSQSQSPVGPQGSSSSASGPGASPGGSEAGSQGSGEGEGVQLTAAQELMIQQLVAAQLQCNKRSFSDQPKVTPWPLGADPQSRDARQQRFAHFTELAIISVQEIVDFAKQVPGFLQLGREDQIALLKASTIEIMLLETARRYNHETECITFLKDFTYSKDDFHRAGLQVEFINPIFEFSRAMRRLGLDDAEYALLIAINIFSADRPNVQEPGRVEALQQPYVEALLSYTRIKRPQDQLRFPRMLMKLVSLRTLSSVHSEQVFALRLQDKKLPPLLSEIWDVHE
In short: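 GST-tagged human LXRβ LBD (aa 156-461, E. coli) at 76 nM with 400 nM biotinylated NCoA3 peptide in Tris/HCl pH 6.8, 240 mM KCl, BSA, 0.002% Triton-X-100, plus 1 μM 24(S)-25-epoxycholesterol as prestimulating agonist. Compounds at 50 μM down to 0.002 μM, 1 h at 4 °C. Coactivator recruitment by TR-FRET (Tb cryptate/XL665, 615/665 nm), triplicates.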

[2] = target: T2, ligand-binding domain (LBD) of LXRα (Homo sapiens, UniProt Q13133); assay: LXR Gal4 reporter transient transfection assay (LBD-M2H Gal4α); format: cell-based; conditions: HEK293 cells, LXRα LBD; read-out: LBD-M2H Gal4α (EC50 range)
T2 construct: expressed in transfected cells; host or cells: HEK293
T2 sequence (Q13133 155-447): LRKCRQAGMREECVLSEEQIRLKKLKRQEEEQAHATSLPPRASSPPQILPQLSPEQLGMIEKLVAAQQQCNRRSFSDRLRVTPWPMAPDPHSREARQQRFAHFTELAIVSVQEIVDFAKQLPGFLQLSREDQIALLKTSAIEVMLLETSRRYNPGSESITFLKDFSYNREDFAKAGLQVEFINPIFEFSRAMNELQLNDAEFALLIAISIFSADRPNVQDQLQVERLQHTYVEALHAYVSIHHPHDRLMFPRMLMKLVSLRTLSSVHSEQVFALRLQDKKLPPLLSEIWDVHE
Experimental: (§1) The tested compounds were usually dissolved, tested and stored as 20 mM stock solutions in DMSO. Since sulfonyl acetic acid derivatives tend to decarboxylate under these conditions, these stock solutions were prepared, tested and stored as 20 mM DMSO stock solutions containing 100 mM trifluoroacetic Acid (5 equivalents). Sulfonyl acetic acid derivatives are shelf stable as solid at rt for long time as reported by Griesbrecht et al. (Synlett 2010:374) or Faucher et al. (J. Med. Chem. 2004; 47:18).
(§2) LXR Gal4 Reporter Transient Transfection Assays
(§3) LXRα and LXRβ activity status was determined via detection of interaction with coactivator and corepressor proteins in mammalian two-hybrid experiments (M2H). For this, via transient transfection the full length (FL) proteins of LXRα (amino acids 1-447; NP005684; SEQ ID NO:1) or LXRβ-(amino acids 1-461; NP009052; SEQ ID NO:2) or the ligand-binding domains (LBD) of LXRα (amino acids 155-447 SEQ ID NO:3) or LXRβ (amino acids 156-461; SEQ ID NO:4) were expressed from pCMV-AD (Stratagene) as fusions to the transcriptional activation domain of NFkB. As cofactors, domains of either the steroid receptor coactivator 1 (SRC1; amino acids 552-887; SEQ ID NO:5) or of the corepressor NCoR (amino acids 1906-2312; NP006302; SEQ ID NO:6) were expressed as fusions to the DNA binding domain of the yeast transcription factor GAL4 (from pCMV-BD; Stratagene). Interaction was monitored via activation of a coexpressed Firefly Luciferase Reporter gene under control of a promoter containing repetitive GAL4 response elements (vector pFRLuc; Stratagene). Transfection efficiency was controlled via cotransfection of constitutively active pRL-CMV Renila reniformis luciferase reporter (Promega). HEK293 cells were grown in minimum essential medium (MEM) with 2 mM L-glutamine and Earle's balanced salt solution supplemented with 8.3% fetal bovine serum, 0.1 mM non-essential amino acids, 1 mM sodium pyruvate, at 37° C. in 5% CO2. 3.5×10^4 cells/well were plated in 96-well cell culture plates in growth medium supplemented with 8.3% fetal bovine serum for 16-20 h to ˜90% confluency. For transfection, medium was taken off and LXR and cofactor expressing plasmids as well as the reporter plasmids are added in 30 μL OPTIMEM/well including polyethylene-imine (PEI) as vehicle. Typical amounts of plasmids transfected/well: pCMV-AD-LXR (5 ng), pCMV-BD-cofactor (5 ng), pFR-Luc (100 ng), pRL-CMV (0.5 ng). Compound stocks were prepared in DMSO, prediluted in MEM to a total volume of 120 μL, and added 4 h after addition of the transfection mixture (final vehicle concentration not exceeding 0.2%). Cells were incubated for additional 16 h, lysed for 10 min in 1× Passive Lysis Buffer (Promega) and Firefly and Renilla luciferase activities were measured sequentially in the same cell extract using buffers containing D-luciferine and coelenterazine, respectively. Measurements of luminescence were done in a BMG-luminometer.

[3] = target: T3, ligand-binding domain (LBD) of LXRβ (Homo sapiens, UniProt P55055, DUP175-175); assay: LXR Gal4 reporter transient transfection assay (LBD-M2H Gal4β); format: cell-based; conditions: HEK293 cells, LXRβ LBD; read-out: LBD-M2H Gal4β (EC50 range)
T3 construct: LXRβ (amino acids 156-461); expressed in transfected cells; host or cells: HEK293
T3 sequence (P55055 with tags, fused parts or gaps DUP175-175 limits assumed): T1 sequence (P55055 with tags, fused parts or gaps DUP175-175 limits assumed)
Experimental: as §1, §2, §3

Row | SMILES | EC50 [1] | EC50 [2] | EC50 [3]
1 | N#Cc1sccc1-c1c(-c2cccs2)n(S(=O)(=O)c2ccc(F)cc2F)c2ccccc12 [20/12] | 1000 to 10000 nM | < 100 nM | < 100 nM
2 | N#Cc1sccc1-c1c(-c2cccs2)n(S(=O)(=O)c2ccc(Cl)cc2)c2ccccc12 [20/13] | 100 to 1000 nM | < 100 nM | < 100 nM
3 | COc1ccc(S(=O)(=O)n2c(-c3ccccc3)c(C3=C(C#N)CCCC3)c3ccccc32)cc1 [20/16] | 1000 to 10000 nM | 100 to 1000 nM | 100 to 1000 nM
4 | COc1ccc(S(=O)(=O)n2c(-c3ccccc3)c(C3=C(C#N)c4ccccc4CC3)c3ccccc32)cc1 [20/19] | > 10000 nM | 100 to 1000 nM | 100 to 1000 nM
5 | COc1ccc(S(=O)(=O)n2c(-c3ccccc3)c(-c3ccc4ncccc4c3C#N)c3ccccc32)cc1 [20/20] | 1000 to 10000 nM | 1000 to 10000 nM | 100 to 1000 nM
6 | COc1ccc(S(=O)(=O)n2c(-c3ccccc3)c(-c3ccsc3C)c3ccccc32)cc1 [20/21] | 1000 to 10000 nM | 100 to 1000 nM | < 100 nM
7 | COc1ccc(S(=O)(=O)n2c(-c3ccccc3)c(-c3ccsc3OC)c3ccccc32)cc1 [20/22] | 100 to 1000 nM | 100 to 1000 nM | 100 to 1000 nM
8 | COc1ccc(S(=O)(=O)n2c(-c3ccccc3)c(-c3cc(C)sc3C#N)c3ccccc32)cc1 [20/23] | 1000 to 10000 nM | 100 to 1000 nM | 100 to 1000 nM
9 | N#Cc1ccc(OCC(=O)O)cc1-c1c(-c2cccs2)n(S(=O)(=O)c2ccc(Cl)cc2)c2ccccc12 [21/1] | 1000 to 10000 nM | 1000 to 10000 nM | 1000 to 10000 nM
10 | N#Cc1c(OCC(=O)O)cccc1-c1c(-c2cccs2)n(S(=O)(=O)c2ccc(Cl)cc2)c2ccccc12 [21/2] | 1000 to 10000 nM | 1000 to 10000 nM | 1000 to 10000 nM
11 | N#Cc1sccc1-c1c(-c2ccc(F)cc2)n(S(=O)(=O)c2ccc(Cl)cc2)c2ccccc12 [26/1] | 1000 to 10000 nM | 100 to 1000 nM | < 100 nM
12 | Cc1ccc(S(=O)(=O)n2c(-c3cccc(-c4cccc(C(=O)O)c4)c3)c(-c3ccsc3C#N)c3ccccc32)cc1 [30/1] | 100 to 1000 nM | 100 to 1000 nM | < 100 nM
13 | Cc1ccc(S(=O)(=O)n2c(-c3cccc(-c4cccc(C(C)(C)C(=O)O)c4)c3)c(-c3ccsc3C#N)c3ccccc32)cc1 [30/2] | 1000 to 10000 nM | 100 to 1000 nM | 100 to 1000 nM
14 | N#Cc1sccc1-c1c(-c2cccc(CCCC(=O)O)c2)n(S(=O)(=O)c2ccc(Cl)cc2)c2ccccc12 [30/5] | 1000 to 10000 nM | 100 to 1000 nM | < 100 nM
15 | N#Cc1sccc1-c1c(-c2cccc(N3CC(C(=O)O)C3)n2)n(S(=O)(=O)c2ccc(Cl)cc2)c2ccccc12 [30/6] | 1000 to 10000 nM | 100 to 1000 nM | 100 to 1000 nM
16 | N#Cc1sccc1-c1c(-c2ccc(C3CC3C(=O)O)s2)n(S(=O)(=O)c2ccc(Cl)cc2)c2ccccc12 (stereo not drawn) [30/8] | 1000 to 10000 nM | 100 to 1000 nM | 100 to 1000 nM
17 | N#Cc1sccc1-c1c(-c2cc(Cl)cc(C3CC3C(=O)O)c2)n(S(=O)(=O)c2ccc(Cl)cc2)c2ccccc12 (stereo not drawn) [30/9] | 1000 to 10000 nM | 100 to 1000 nM | < 100 nM
